The assay relates to GBM26 xenograft. In words: Orthotopic intracranial xenograft survival, GBM26. Type of assay: in vivo, human. The note with it: for Survival Prolongation: median survival relative to placebo, 66 mg/kg oral for 5 days (Table 3), 66 mg/kg. As for the experimental part:
In vivo sensitivity of GBM lines to TMZ: To address whether MGMT methylation or polypeptide expression status are predictive of TMZ responsiveness, the effects of TMZ therapy on survival were evaluated in the panel of xenografts using an orthotopic therapy model. Mice with established intracranial xenografts were treated with 66 mg/kg TMZ or placebo daily for 5 days by oral gavage. This TMZ dosing regimen provides the equivalent dose-exposure to TMZ as the standard adjuvant TMZ dosing regimen for GBM patients of 200 mg/m^2×5 days. All mice were followed until reaching a moribund state, and the relative prolongation of survival following TMZ treatment was calculated for each line relative to placebo treatment (Table 1). […] Further analysis of the relationship between TMZ responsiveness and MGMT methylation status in 17 xenograft lines was conducted by comparing the distribution of median survival prolongation results for methylation-positive and methylation-negative groups of xenografts. From this analysis, MGMT methylation was modestly associated with increased TMZ sensitivity (FIG. 2, p=0.039, two-sample rank sum test). In a similar analysis of MGMT polypeptide expression levels, high levels of MGMT polypeptide expression were invariably associated with relative TMZ resistance, and the absence of MGMT polypeptide expression was associated with significant TMZ sensitivity (r=−0.73, p=0.005). […] While p53, PTEN and EGFR function have been linked to TMZ sensitivity in some models, no correlation between genetic alterations of these genes and TMZ responsiveness was observed.
Orthotopic model: Therapy evaluations were conducted using an orthotopic tumor model as described elsewhere (Sarkaria et al., Clin Cancer Res, 12:2264-2271 (2006), Giannini et al., Neuro-Oncology, 7:164-176, (2005)). Athymic nude mice (NCI, Frederick, Md.) with established intracranial tumors were randomized into groups of 8 to 10 mice each and treatment was initiated 2 weeks before mice were expected to become moribund. TMZ was purchased from the Mayo Clinic Pharmacy, suspended in Ora-plus (Paddock Laboratories, Minneapolis. MN), and administered by oral gavage at 66 mg/kg for 5 days. Mice were observed daily and euthanized when moribund.
Statistical analysis: Survival distributions were estimated using the Kaplan-Meier method. The log rank test was used to compare survival across treatment groups. All GBM experiments were pooled and Classification and Regression Tree analysis (CART) was used to identify which CpG sites in the MS-PCR assay (CpG sites 78-82, 86-89) were predictive of overall survival in TMZ treated mice. The two-sample rank sum test was used to compare relative differences in survival relative to MGMT MS-PCR status or CpG89 methylation status. Spearman's correlation coefficient was used to assess the association of relative median survival and protein expression levels of MGMT relative to 13-actin.
(Xenograft models place foreign cells or tissue in a host animal.)

For `Cn1nnc2c(C(N)=O)ncn2c1=O` [TMZ, Temozolomide], the “Survival Prolongation” value is, setting by setting: (GBM26) 21%; (GBM26, listed as Temozolomide) 21%. For the same compound, the Survival benefit (GBM26, prolongation of median survival relative to placebo, TMZ 66 mg/kg oral x5 days) is on record as 21%. In addition, the TMZ median survival (GBM26 intracranial xenograft, nude mice, TMZ 66 mg/kg oral daily x5 days) is listed as 100. This compound gave a Temozolomide median survival (GBM26 intracranial, athymic nude mice, 66 mg/kg oral gavage for 5 days (Table 3)) of 100.

(Values after patent US20100203531A1, “PREDICTING RESPONSIVENESS TO TEMOZOLOMIDE” (priority 2007, published 2010).)
